From ChEMBL document CHEMBL3991601, “The target landscape of clinical kinase drugs” (Science, 2017)
Calls of active or inactive are those of the source. For most assays here, no stated cut-off is given here; in the data, actives have a measured Kd and inactives only a lower limit.

Target: Cyclin-dependent kinase 3 (Homo sapiens, UniProt Q00526)
Sequence (Q00526 whole entry): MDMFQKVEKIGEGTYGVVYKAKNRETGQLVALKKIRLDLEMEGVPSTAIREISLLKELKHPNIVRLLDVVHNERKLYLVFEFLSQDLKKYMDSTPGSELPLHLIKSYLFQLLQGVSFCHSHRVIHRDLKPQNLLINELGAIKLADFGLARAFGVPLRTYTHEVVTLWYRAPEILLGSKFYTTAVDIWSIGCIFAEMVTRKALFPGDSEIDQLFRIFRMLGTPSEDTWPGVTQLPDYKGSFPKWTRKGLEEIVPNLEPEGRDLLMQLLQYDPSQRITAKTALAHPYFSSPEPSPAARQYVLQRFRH

Compound | Kd
COc1cc(N2CCC(N3CCN(C)CC3)CC2)ccc1Nc1ncnc(Nc2ccccc2S(=O)(=O)C(C)C)n1 [ASP-3026] | > 30 µM (inactive)
CNS(=O)(=O)Nc1nccc(Cc2c(C)c3ccc(Oc4ncccn4)cc3oc2=O)c1F [AVUTOMETINIB] | > 30 µM (inactive)
COc1cc(CCc2cc(NC(=O)c3ccc(N4C[C@@H](C)N[C@@H](C)C4)cc3)n[nH]2)cc(OC)c1 [AZD-4547] | > 30 µM (inactive)
Cc1cc([C@@H](C)Nc2ccccc2C(=O)O)c2nc(N3CCOCC3)cc(=O)n2c1 [AZD-6482] | > 30 µM (inactive)
COc1ccc(-c2ccc3c(N4CCOC[C@@H]4C)nc(N4CCOC[C@@H]4C)nc3n2)cc1CO [AZD-8055] | > 30 µM (inactive)

Target: Receptor-interacting serine/threonine-protein kinase 2 (Homo sapiens, UniProt O43353)
Sequence (O43353 whole entry): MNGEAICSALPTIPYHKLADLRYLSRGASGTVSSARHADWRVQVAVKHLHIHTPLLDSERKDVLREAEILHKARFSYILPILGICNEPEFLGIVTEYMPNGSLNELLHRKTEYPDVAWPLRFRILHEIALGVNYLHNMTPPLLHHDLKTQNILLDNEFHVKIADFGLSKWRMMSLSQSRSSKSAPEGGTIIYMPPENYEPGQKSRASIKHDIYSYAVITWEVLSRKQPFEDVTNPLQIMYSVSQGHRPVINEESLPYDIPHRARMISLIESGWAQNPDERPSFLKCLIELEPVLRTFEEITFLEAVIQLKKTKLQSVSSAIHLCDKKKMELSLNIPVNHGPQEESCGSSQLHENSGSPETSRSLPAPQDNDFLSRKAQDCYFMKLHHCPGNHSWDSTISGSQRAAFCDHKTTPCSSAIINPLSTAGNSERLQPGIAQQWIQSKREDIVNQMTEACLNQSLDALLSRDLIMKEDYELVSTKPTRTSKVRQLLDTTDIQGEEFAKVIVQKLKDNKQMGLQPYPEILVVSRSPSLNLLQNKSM

Compound | Kd
COc1cc(N2CCC(N3CCN(C)CC3)CC2)ccc1Nc1ncnc(Nc2ccccc2S(=O)(=O)C(C)C)n1 [ASP-3026] | > 30 µM (inactive)
CNS(=O)(=O)Nc1nccc(Cc2c(C)c3ccc(Oc4ncccn4)cc3oc2=O)c1F [AVUTOMETINIB] | > 30 µM (inactive)
COc1cc(CCc2cc(NC(=O)c3ccc(N4C[C@@H](C)N[C@@H](C)C4)cc3)n[nH]2)cc(OC)c1 [AZD-4547] | > 30 µM (inactive)
Cc1cc([C@@H](C)Nc2ccccc2C(=O)O)c2nc(N3CCOCC3)cc(=O)n2c1 [AZD-6482] | > 30 µM (inactive)
COc1ccc(-c2ccc3c(N4CCOC[C@@H]4C)nc(N4CCOC[C@@H]4C)nc3n2)cc1CO [AZD-8055] | > 30 µM (inactive)

Target: Mitogen-activated protein kinase 7 (Homo sapiens, UniProt Q13164)
Sequence (Q13164 whole entry): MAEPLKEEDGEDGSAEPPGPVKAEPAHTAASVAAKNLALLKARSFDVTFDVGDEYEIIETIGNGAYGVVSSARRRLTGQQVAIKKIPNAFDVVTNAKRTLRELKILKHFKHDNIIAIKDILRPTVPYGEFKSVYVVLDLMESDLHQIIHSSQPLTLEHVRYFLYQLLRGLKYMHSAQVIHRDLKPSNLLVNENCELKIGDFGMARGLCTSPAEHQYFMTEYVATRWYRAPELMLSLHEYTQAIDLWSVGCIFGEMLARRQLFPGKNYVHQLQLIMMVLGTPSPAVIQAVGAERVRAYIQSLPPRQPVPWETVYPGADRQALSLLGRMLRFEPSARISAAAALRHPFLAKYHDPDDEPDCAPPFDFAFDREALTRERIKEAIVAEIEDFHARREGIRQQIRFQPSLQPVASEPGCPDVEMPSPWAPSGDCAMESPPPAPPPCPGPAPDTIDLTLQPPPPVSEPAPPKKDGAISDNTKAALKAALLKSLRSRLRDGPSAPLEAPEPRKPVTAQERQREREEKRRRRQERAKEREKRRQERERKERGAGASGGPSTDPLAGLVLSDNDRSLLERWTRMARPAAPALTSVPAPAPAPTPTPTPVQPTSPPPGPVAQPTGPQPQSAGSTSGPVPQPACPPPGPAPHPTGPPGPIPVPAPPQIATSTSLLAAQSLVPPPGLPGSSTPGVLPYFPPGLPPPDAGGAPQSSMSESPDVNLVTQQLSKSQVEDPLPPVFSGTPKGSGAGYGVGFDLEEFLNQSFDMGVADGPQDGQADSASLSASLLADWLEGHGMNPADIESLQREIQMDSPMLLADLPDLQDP

Compound | Kd
COc1cc(N2CCC(N3CCN(C)CC3)CC2)ccc1Nc1ncnc(Nc2ccccc2S(=O)(=O)C(C)C)n1 [ASP-3026] | > 30 µM (inactive)
CNS(=O)(=O)Nc1nccc(Cc2c(C)c3ccc(Oc4ncccn4)cc3oc2=O)c1F [AVUTOMETINIB] | > 30 µM (inactive)
COc1cc(CCc2cc(NC(=O)c3ccc(N4C[C@@H](C)N[C@@H](C)C4)cc3)n[nH]2)cc(OC)c1 [AZD-4547] | > 30 µM (inactive)
Cc1cc([C@@H](C)Nc2ccccc2C(=O)O)c2nc(N3CCOCC3)cc(=O)n2c1 [AZD-6482] | > 30 µM (inactive)
COc1ccc(-c2ccc3c(N4CCOC[C@@H]4C)nc(N4CCOC[C@@H]4C)nc3n2)cc1CO [AZD-8055] | > 30 µM (inactive)

Target: LIM domain kinase 2 (Homo sapiens, UniProt P53671)
Sequence (P53671 whole entry, the tested form may be a part): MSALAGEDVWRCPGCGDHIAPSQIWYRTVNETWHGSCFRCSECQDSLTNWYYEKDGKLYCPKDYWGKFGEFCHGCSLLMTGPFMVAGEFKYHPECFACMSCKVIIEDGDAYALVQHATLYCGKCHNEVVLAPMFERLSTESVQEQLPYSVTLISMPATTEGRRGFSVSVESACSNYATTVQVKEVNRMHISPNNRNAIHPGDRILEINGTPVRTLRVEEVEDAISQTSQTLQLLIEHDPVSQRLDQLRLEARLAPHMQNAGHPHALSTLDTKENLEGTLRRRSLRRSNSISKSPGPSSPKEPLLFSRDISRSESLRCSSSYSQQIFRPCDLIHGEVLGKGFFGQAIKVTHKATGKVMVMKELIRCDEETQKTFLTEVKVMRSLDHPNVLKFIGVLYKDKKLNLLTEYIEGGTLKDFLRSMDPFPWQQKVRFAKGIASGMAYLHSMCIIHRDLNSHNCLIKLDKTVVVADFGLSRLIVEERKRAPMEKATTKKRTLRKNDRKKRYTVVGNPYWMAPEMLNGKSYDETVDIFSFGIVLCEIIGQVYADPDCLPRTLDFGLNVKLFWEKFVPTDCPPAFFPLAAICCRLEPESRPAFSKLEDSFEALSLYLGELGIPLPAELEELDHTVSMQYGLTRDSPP

Compound | Kd
COc1cc(N2CCC(N3CCN(C)CC3)CC2)ccc1Nc1ncnc(Nc2ccccc2S(=O)(=O)C(C)C)n1 [ASP-3026] | 5.31 µM (active)
CNS(=O)(=O)Nc1nccc(Cc2c(C)c3ccc(Oc4ncccn4)cc3oc2=O)c1F [AVUTOMETINIB] | > 30 µM (inactive)
COc1cc(CCc2cc(NC(=O)c3ccc(N4C[C@@H](C)N[C@@H](C)C4)cc3)n[nH]2)cc(OC)c1 [AZD-4547] | > 30 µM (inactive)
Cc1cc([C@@H](C)Nc2ccccc2C(=O)O)c2nc(N3CCOCC3)cc(=O)n2c1 [AZD-6482] | > 30 µM (inactive)
COc1ccc(-c2ccc3c(N4CCOC[C@@H]4C)nc(N4CCOC[C@@H]4C)nc3n2)cc1CO [AZD-8055] | > 30 µM (inactive)

Target: Protein kinase C delta type (Homo sapiens, UniProt Q05655)
Sequence (Q05655 whole entry): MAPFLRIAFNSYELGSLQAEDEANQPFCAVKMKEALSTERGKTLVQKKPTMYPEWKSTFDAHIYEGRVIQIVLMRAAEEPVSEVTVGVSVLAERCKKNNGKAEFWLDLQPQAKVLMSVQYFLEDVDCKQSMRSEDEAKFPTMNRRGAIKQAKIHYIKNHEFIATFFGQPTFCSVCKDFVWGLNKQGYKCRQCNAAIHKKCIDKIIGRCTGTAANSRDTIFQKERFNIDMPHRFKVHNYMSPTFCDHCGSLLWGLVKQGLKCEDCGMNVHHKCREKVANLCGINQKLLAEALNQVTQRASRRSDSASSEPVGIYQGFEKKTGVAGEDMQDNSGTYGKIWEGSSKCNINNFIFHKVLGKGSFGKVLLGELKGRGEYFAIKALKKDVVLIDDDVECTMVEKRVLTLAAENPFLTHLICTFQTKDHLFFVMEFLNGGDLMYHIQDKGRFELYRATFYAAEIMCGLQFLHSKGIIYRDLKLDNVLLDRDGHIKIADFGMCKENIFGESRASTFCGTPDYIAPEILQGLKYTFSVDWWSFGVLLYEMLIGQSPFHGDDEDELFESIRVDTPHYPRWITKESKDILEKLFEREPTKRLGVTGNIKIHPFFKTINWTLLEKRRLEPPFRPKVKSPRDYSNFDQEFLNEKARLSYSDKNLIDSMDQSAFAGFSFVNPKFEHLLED

Compound | Kd
COc1cc(N2CCC(N3CCN(C)CC3)CC2)ccc1Nc1ncnc(Nc2ccccc2S(=O)(=O)C(C)C)n1 [ASP-3026] | > 30 µM (inactive)
CNS(=O)(=O)Nc1nccc(Cc2c(C)c3ccc(Oc4ncccn4)cc3oc2=O)c1F [AVUTOMETINIB] | > 30 µM (inactive)
COc1cc(CCc2cc(NC(=O)c3ccc(N4C[C@@H](C)N[C@@H](C)C4)cc3)n[nH]2)cc(OC)c1 [AZD-4547] | > 30 µM (inactive)
Cc1cc([C@@H](C)Nc2ccccc2C(=O)O)c2nc(N3CCOCC3)cc(=O)n2c1 [AZD-6482] | > 30 µM (inactive)
COc1ccc(-c2ccc3c(N4CCOC[C@@H]4C)nc(N4CCOC[C@@H]4C)nc3n2)cc1CO [AZD-8055] | > 30 µM (inactive)

Target: Midasin (Homo sapiens, UniProt Q9NU22)

Compound | Kd
COc1cc(N2CCC(N3CCN(C)CC3)CC2)ccc1Nc1ncnc(Nc2ccccc2S(=O)(=O)C(C)C)n1 [ASP-3026] | > 30 µM (inactive)
CNS(=O)(=O)Nc1nccc(Cc2c(C)c3ccc(Oc4ncccn4)cc3oc2=O)c1F [AVUTOMETINIB] | > 30 µM (inactive)
COc1cc(CCc2cc(NC(=O)c3ccc(N4C[C@@H](C)N[C@@H](C)C4)cc3)n[nH]2)cc(OC)c1 [AZD-4547] | > 30 µM (inactive)
Cc1cc([C@@H](C)Nc2ccccc2C(=O)O)c2nc(N3CCOCC3)cc(=O)n2c1 [AZD-6482] | > 30 µM (inactive)
COc1ccc(-c2ccc3c(N4CCOC[C@@H]4C)nc(N4CCOC[C@@H]4C)nc3n2)cc1CO [AZD-8055] | > 30 µM (inactive)

Target: T1, Serine/threonine-protein kinase Nek2 (Homo sapiens, UniProt P51955)
T1 sequence (P51955 whole entry): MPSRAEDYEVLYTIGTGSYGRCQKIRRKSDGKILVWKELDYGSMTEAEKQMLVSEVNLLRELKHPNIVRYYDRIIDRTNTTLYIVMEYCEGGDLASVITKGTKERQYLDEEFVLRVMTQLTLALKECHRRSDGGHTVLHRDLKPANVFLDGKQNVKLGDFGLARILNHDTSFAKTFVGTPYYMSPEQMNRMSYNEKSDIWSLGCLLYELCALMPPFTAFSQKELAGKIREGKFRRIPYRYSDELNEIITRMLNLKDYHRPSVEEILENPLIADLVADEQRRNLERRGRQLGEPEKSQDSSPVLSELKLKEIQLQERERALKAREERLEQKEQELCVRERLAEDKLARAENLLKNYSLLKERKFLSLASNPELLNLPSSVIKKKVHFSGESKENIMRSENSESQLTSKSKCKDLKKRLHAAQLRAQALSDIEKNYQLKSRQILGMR

Compound | Kd
COc1cc(N2CCC(N3CCN(C)CC3)CC2)ccc1Nc1ncnc(Nc2ccccc2S(=O)(=O)C(C)C)n1 [ASP-3026] | > 30 µM (inactive)
CNS(=O)(=O)Nc1nccc(Cc2c(C)c3ccc(Oc4ncccn4)cc3oc2=O)c1F [AVUTOMETINIB] | > 30 µM (inactive)
COc1cc(CCc2cc(NC(=O)c3ccc(N4C[C@@H](C)N[C@@H](C)C4)cc3)n[nH]2)cc(OC)c1 [AZD-4547] | > 30 µM (inactive)
Cc1cc([C@@H](C)Nc2ccccc2C(=O)O)c2nc(N3CCOCC3)cc(=O)n2c1 [AZD-6482] | > 30 µM (inactive)
COc1ccc(-c2ccc3c(N4CCOC[C@@H]4C)nc(N4CCOC[C@@H]4C)nc3n2)cc1CO [AZD-8055] | > 30 µM (inactive)

Target: T2, Serine/threonine-protein kinase LATS1 (Homo sapiens, UniProt O95835)
T2 sequence (O95835 whole entry): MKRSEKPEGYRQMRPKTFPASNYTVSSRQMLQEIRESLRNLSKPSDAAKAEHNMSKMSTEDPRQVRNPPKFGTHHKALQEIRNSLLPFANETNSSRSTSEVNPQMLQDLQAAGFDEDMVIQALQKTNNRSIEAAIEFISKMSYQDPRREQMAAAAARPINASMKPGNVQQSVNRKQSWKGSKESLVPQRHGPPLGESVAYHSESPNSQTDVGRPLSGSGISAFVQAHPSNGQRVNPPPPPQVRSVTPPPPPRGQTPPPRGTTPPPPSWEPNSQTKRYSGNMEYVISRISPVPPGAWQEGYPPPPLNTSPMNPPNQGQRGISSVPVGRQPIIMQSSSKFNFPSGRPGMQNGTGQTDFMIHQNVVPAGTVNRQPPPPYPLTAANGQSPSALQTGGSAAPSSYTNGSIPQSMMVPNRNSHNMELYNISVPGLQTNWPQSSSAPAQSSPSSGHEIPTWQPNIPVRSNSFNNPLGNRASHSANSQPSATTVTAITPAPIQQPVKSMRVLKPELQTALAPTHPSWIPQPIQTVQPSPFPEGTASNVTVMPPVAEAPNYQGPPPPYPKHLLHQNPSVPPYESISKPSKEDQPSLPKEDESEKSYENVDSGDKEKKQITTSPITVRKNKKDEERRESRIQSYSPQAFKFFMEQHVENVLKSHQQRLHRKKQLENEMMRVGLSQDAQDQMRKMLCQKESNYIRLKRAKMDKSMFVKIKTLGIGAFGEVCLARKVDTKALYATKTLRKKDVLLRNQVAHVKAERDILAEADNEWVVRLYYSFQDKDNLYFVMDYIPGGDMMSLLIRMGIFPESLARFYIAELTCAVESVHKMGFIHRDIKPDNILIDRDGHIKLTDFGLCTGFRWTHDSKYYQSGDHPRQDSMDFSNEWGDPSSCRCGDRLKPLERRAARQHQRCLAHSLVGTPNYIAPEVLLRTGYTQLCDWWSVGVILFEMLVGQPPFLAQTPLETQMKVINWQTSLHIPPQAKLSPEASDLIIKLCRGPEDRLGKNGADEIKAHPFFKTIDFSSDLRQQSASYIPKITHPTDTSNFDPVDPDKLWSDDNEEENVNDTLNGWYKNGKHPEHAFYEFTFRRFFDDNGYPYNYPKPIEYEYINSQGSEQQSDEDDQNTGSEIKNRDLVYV

Compound | Kd
COc1cc(N2CCC(N3CCN(C)CC3)CC2)ccc1Nc1ncnc(Nc2ccccc2S(=O)(=O)C(C)C)n1 [ASP-3026] | > 30 µM (inactive)
CNS(=O)(=O)Nc1nccc(Cc2c(C)c3ccc(Oc4ncccn4)cc3oc2=O)c1F [AVUTOMETINIB] | > 30 µM (inactive)
COc1cc(CCc2cc(NC(=O)c3ccc(N4C[C@@H](C)N[C@@H](C)C4)cc3)n[nH]2)cc(OC)c1 [AZD-4547] | > 30 µM (inactive)
Cc1cc([C@@H](C)Nc2ccccc2C(=O)O)c2nc(N3CCOCC3)cc(=O)n2c1 [AZD-6482] | > 30 µM (inactive)
COc1ccc(-c2ccc3c(N4CCOC[C@@H]4C)nc(N4CCOC[C@@H]4C)nc3n2)cc1CO [AZD-8055] | > 30 µM (inactive)

Target: Tyrosine-protein kinase HCK (Homo sapiens, UniProt P08631)
Sequence (P08631 whole entry): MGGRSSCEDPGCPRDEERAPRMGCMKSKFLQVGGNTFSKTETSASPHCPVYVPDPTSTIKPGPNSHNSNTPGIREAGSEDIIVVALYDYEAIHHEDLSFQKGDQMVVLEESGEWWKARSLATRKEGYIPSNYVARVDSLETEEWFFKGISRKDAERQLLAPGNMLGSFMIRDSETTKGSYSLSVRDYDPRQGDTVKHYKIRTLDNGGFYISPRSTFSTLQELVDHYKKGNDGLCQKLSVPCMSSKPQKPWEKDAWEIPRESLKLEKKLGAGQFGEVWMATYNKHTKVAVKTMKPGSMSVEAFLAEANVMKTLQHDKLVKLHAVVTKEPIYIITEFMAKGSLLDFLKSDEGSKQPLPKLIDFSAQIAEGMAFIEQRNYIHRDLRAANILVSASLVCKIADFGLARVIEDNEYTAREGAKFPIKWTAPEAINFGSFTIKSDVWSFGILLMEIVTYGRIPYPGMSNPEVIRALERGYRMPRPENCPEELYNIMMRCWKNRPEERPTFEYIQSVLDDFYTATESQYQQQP

Compound | Kd
COc1cc(N2CCC(N3CCN(C)CC3)CC2)ccc1Nc1ncnc(Nc2ccccc2S(=O)(=O)C(C)C)n1 [ASP-3026] | 1.25 µM (active)
CNS(=O)(=O)Nc1nccc(Cc2c(C)c3ccc(Oc4ncccn4)cc3oc2=O)c1F [AVUTOMETINIB] | > 30 µM (inactive)
COc1cc(CCc2cc(NC(=O)c3ccc(N4C[C@@H](C)N[C@@H](C)C4)cc3)n[nH]2)cc(OC)c1 [AZD-4547] | > 30 µM (inactive)
Cc1cc([C@@H](C)Nc2ccccc2C(=O)O)c2nc(N3CCOCC3)cc(=O)n2c1 [AZD-6482] | > 30 µM (inactive)
COc1ccc(-c2ccc3c(N4CCOC[C@@H]4C)nc(N4CCOC[C@@H]4C)nc3n2)cc1CO [AZD-8055] | > 30 µM (inactive)

Target: T3, Mitogen-activated protein kinase kinase kinase kinase 2 (Homo sapiens, UniProt Q12851)
T3 sequence (Q12851 whole entry): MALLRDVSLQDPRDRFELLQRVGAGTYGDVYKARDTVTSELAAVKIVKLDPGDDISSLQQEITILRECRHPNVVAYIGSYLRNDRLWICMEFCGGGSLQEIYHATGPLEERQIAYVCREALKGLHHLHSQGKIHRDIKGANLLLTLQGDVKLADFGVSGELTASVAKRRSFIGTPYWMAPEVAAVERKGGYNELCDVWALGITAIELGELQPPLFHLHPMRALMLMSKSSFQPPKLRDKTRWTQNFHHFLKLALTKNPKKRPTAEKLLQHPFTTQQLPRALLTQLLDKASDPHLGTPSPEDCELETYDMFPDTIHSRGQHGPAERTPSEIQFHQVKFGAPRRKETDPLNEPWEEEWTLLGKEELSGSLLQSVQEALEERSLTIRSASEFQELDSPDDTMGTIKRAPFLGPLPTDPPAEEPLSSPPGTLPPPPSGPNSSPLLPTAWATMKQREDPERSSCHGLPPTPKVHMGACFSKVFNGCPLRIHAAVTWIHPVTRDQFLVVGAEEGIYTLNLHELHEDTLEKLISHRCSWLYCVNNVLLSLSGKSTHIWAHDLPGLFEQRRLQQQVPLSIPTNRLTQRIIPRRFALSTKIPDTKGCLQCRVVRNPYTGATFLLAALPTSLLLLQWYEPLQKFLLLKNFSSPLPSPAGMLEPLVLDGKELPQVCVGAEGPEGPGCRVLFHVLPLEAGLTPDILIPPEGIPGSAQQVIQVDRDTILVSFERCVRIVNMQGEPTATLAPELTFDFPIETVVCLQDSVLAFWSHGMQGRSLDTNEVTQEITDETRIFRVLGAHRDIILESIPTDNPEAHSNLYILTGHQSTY

Compound | Kd
COc1cc(N2CCC(N3CCN(C)CC3)CC2)ccc1Nc1ncnc(Nc2ccccc2S(=O)(=O)C(C)C)n1 [ASP-3026] | > 30 µM (inactive)
CNS(=O)(=O)Nc1nccc(Cc2c(C)c3ccc(Oc4ncccn4)cc3oc2=O)c1F [AVUTOMETINIB] | > 30 µM (inactive)
COc1cc(CCc2cc(NC(=O)c3ccc(N4C[C@@H](C)N[C@@H](C)C4)cc3)n[nH]2)cc(OC)c1 [AZD-4547] | 0.11 µM (active)
Cc1cc([C@@H](C)Nc2ccccc2C(=O)O)c2nc(N3CCOCC3)cc(=O)n2c1 [AZD-6482] | > 30 µM (inactive)
COc1ccc(-c2ccc3c(N4CCOC[C@@H]4C)nc(N4CCOC[C@@H]4C)nc3n2)cc1CO [AZD-8055] | > 30 µM (inactive)
